Test results from patent US9486435B2, “(Het)aryl-p-quinone derivatives for treatment of mitochondrial diseases” (Edison Pharmaceuticals, Inc., priority 2008, dated 2016).

Tests used:
Assay type in all cases: cell-based
[1] = tested on: human dermal fibroblasts from Huntington's patients; experiment: Rescue of BSO-stressed fibroblasts from Huntington's patients; details: Fibroblast, Huntington's fibroblasts GM 04281, BSO stress, read-out: protection against Huntington's, EC50
Method: (§1) An initial screen was performed to identify compounds effective for the amelioration of redox disorders. Test samples, 4 reference compounds (Idebenone, decylubiquinone, Trolox and α-tocopherol acetate), and solvent controls were tested for their ability to rescue FRDA fibroblasts stressed by addition of L-buthionine-(S,R)-sulfoximine (BSO), as described in Jauslin et al., Hum. Mol. Genet. 11(24):3055 (2002), Jauslin et al., FASEB J. 17:1972-4 (2003), and International Patent Application WO 2004/003565. […] This specific BSO-mediated cell death can be prevented by administration of antioxidants or molecules involved in the antioxidant pathway, such as α-tocopherol, selenium, or small molecule glutathione peroxidase mimetics. However, antioxidants differ in their potency, i.e. the concentration at which they are able to rescue BSO-stressed FRDA fibroblasts.
(§2) Test samples were screened according to the following protocol: A culture with FRDA fibroblasts was started from a 1 ml vial with approximately 500,000 cells stored in liquid nitrogen. Cells were propagated in 10 cm cell culture dishes by splitting every third day in a ratio of 1:3 until nine plates were available. Once confluent, fibroblasts were harvested. For 54 micro titer plates (96 well-MTP) a total of 14.3 million cells (passage eight) were re-suspended in 480 ml medium, corresponding to 100 μl medium with 3,000 cells/well. The remaining cells were distributed in 10 cm cell culture plates (500,000 cells/plate) for propagation. The plates were incubated overnight at 37° C. in a atmosphere with 95% humidity and 5% CO2 to allow attachment of the cells to the culture plate.
(§3) MTP medium (243 μl) was added to a well of the microtiter plate. The test compounds were unfrozen, and 7.5 μl of a 5 mM stock solution was dissolved in the well containing 243 μl medium, resulting in a 150 μM master solution. Serial dilutions from the master solution were made. The period between the single dilution steps was kept as short as possible (generally less than 1 second).
(§4) Plates were kept overnight in the cell culture incubator. The next day, 10 μl of a 10 mM BSO solution were added to the wells, resulting in a 1 mM final BSO concentration. Forty-eight hours later, three plates were examined under a phase-contrast microscope to verify that the cells in the 0% control (wells E1-H1) were clearly dead. The medium from all plates was discarded, and the remaining liquid was removed by gently tapping the plate inversed onto a paper towel.
(§5) 100 μl of PBS containing 1.2 μM Calcein AM were then added to each well. The plates were incubated for 50-70 minutes at room temperature. After that time the PBS was discarded, the plate gently tapped on a paper towel and fluorescence (excitation/emission wavelengths of 485 nm and 525 nm, respectively) was read on a Gemini fluorescence reader. Data was imported into Microsoft Excel (EXCEL is a registered trademark of Microsoft Corporation for a spreadsheet program) and used to calculate the EC50 concentration for each compound.
Compounds of the invention were tested using the screen as described in Example A, but substituting FRDA cells with Huntington's cells obtained from the Coriell Cell Repositories (Camden, N.J.; repository number GM 04281). The compounds were tested for their ability to rescue human dermal fibroblasts from Huntington's patients from oxidative stress.

[2] = tested on: human dermal fibroblasts from Parkinson's disease patients; experiment: Rescue of BSO-stressed fibroblasts from Parkinson's disease patients; details: Fibroblast, PD fibroblasts AG20439, BSO stress, read-out: protection against PD, EC50
Method: as §1, §2, §3, §4, §5
(§6) Compounds of the invention were screened as described in Example A, but substituting FRDA cells with Parkinson's Disease (PD) cells obtained from the Coriell Cell Repositories (Camden, N.J.; repository number AG20439). The compounds were tested for their ability to rescue human dermal fibroblasts from Parkinson's disease patients from oxidative stress.

[3] = tested on: human dermal fibroblasts from LHON patients; experiment: Rescue of BSO-stressed fibroblasts from LHON patients; details: Fibroblast, LHON fibroblasts GM03858, BSO stress, read-out: protection against LHON, EC50
Method: as §1, §2, §3, §4, §5
as §6, with “Leber's Hereditary Optic Neuropathy (LHON)” for “Parkinson's Disease (PD)”, “GM03858).” for “AG20439).”, “LHON” for “Parkinson's disease”

[4] = tested on: Human dermal fibroblasts from Friedreich's Ataxia patients; experiment: Rescue of BSO-stressed FRDA fibroblasts (Calcein AM viability); details: FRDA fibroblasts GM04078, BSO stress, read-out: protection against FRDA, EC50
Method: as §1
MEM (a medium enriched in amino acids and vitamins, catalog no. 1-31F24-I) and Medium 199 (M199, catalog no. 1-21F22-I) with Earle's Balanced Salts, without phenol red, were purchased from Bioconcept. Fetal Calf Serum was obtained from PAA Laboratories. Basic fibroblast growth factor and epidermal growth factor were purchased from PeproTech. Penicillin-streptomycin-glutamine mix, L-buthionine (S,R)-sulfoximine, (+)-α-tocopherol acetate, decylubiquinone, and insulin from bovine pancreas were purchased from Sigma. Trolox (6-hydroxy-2,5,7,8-tetramethylchromane-2-carboxylic acid) was obtained from Fluka. Idebenone was obtained from Chemo Iberica. Calcein AM was purchased from Molecular Probes. Cell culture medium was made by combining 125 ml M 199 EBS, 50 ml Fetal Calf Serum, 100 U/ml penicillin, 100 μg/ml streptomycin, 2 mM glutamine, 10 μg/ml insulin, 10 ng/ml EGF, and 10 ng/ml bFGF; MEM EBS was added to make the volume up to 500 ml. A 10 mM BSO solution was prepared by dissolving 444 mg BSO in 200 ml of medium with subsequent filter-sterilization. During the course of the experiments, this solution was stored at +4° C. The cells were obtained from the Coriell Cell Repositories (Camden, N.J.; repository number GM04078) and grown in 10 cm tissue culture plates. Every third day, they were split at a 1:3 ratio.
The test samples were supplied in 1.5 ml glass vials. The compounds were diluted with DMSO, ethanol or PBS to result in a 5 mM stock solution. Once dissolved, they were stored at −20° C. Reference antioxidants (Idebenone, decylubiquinone, α-tocopherol acetate and trolox) were dissolved in DMSO.
as §2, §3
as §4, with “The medium from all plates was discarded, and the remaining liquid was removed by gently tapping the plate inversed onto a paper towel.” left out

CC1=C(C)C(=O)C(c2cccc(F)c2)=C(CCC(C)(C)O)C1=O [Example 20, 2-(3-Fluorophenyl)-3-(3-hydroxy-3-methylbutyl)-5,6-dimethylcyclohexa-2,5-diene-1,4-dione]
EC50 [1]: < 0.2 µM | EC50 [2]: < 0.2 µM | EC50 [3]: < 0.2 µM | EC50 [4]: < 0.2 µM

CC1=C(C)C(=O)C(c2ccccc2F)=C(CCC(C)(C)O)C1=O [Example 22, 2-(2-Fluorophenyl)-3-(3-hydroxy-3-methylbutyl)-5,6-dimethylcyclohexa-2,5-diene-1,4-dione]
EC50 [1]: < 0.2 µM

CC1=C(C)C(=O)C(c2ccc(C(F)(F)F)cc2)=C(CCC(C)(C)O)C1=O [Example 11, 2-(3-Hydroxy-3-methylbutyl)-5,6-dimethyl-3-(4-(trifluoromethyl)phenyl)cyclohexa-2,5-diene-1,4-dione]
EC50 [1]: < 0.2 µM | EC50 [2]: < 0.2 µM | EC50 [3]: < 0.2 µM | EC50 [4]: < 0.2 µM

COc1ccc(C2=C(C)C(=O)C(C)=C(CCC(C)(C)O)C2=O)cc1 [Example 2, 2-(3-Hydroxy-3-methylbutyl)-6-(4-methoxyphenyl)-3,5-dimethylcyclohexa-2,5-diene-1,4-dione]
EC50 [1]: < 0.2 µM | EC50 [2]: < 0.2 µM | EC50 [3]: < 0.2 µM | EC50 [4]: < 0.2 µM

CC1=C(C)C(=O)C(c2ccc(C#N)cc2)=C(CCC(C)(C)O)C1=O [4-(2-(3-hydroxy-3-methylbutyl)-4,5-dimethyl-3,6-dioxocyclohexa-1,4-dienyl)benzonitrile]
EC50 [1]: < 0.2 µM

CC1=C(CCC(C)(C)O)C(=O)C(c2ccc(F)cc2)=C(C)C1=O [Example 6, 2-(4Fluorophenyl)-6-(3-hydroxy-3-methylbutyl)-3,5-dimethylcyclohexa-2,5-diene-1,4-dione]
EC50 [1]: < 0.2 µM | EC50 [2]: < 0.2 µM | EC50 [3]: < 0.2 µM | EC50 [4]: < 0.2 µM

CC1=C(C)C(=O)C(c2ccc(F)cc2)=C(CCC(C)(C)O)C1=O [Example 9, 2-(4-Fluorophenyl)-3-(3-hydroxy-3-methylbutyl)-5,6-dimethylcyclohexa-2,5-diene-1,4-dione]
EC50 [1]: < 0.2 µM | EC50 [3]: < 0.2 µM | EC50 [4]: < 0.2 µM

CC1=C(C)C(=O)C(c2ccc3ccccc3c2)=C(CCC(C)(C)O)C1=O [Example 13, 2-(3-Hydroxy-3-methylbutyl)-5,6-dimethyl-3-(naphthalen-2-yl)cyclohexa-2,5-diene-1,4-dione]
EC50 [1]: < 0.2 µM | EC50 [2]: < 0.2 µM | EC50 [3]: < 0.2 µM | EC50 [4]: < 0.2 µM

CC1=C(CCC(C)(C)O)C(=O)C(c2ccc(C#N)cc2)=C(C)C1=O [Example 3, 4-(5-(3-Hydroxy-3-methylbutyl)-2,4-dimethyl-3,6-dioxocyclohexa-1,4-dienyl)benzonitrile]
EC50 [2]: < 0.2 µM | EC50 [3]: < 0.2 µM | EC50 [4]: < 0.2 µM

COc1cc(F)ccc1C1=C(CCC(C)(C)O)C(=O)C(C)=C(C)C1=O [2-(4-fluoro-2-methoxyphenyl)-3-(3-hydroxy-3-methylbutyl)-5,6-dimethylcyclohexa-2,5-diene-1,4-dione]
EC50 [1]: < 0.2 µM

CC1=C(C)C(=O)C(CCC(C)(C)O)=C(CCCc2ccccc2)C1=O [Example 24, 2-(3-Hydroxy-3-methylbutyl)-5,6-dimethyl-3-(3-phenylpropyl)cyclohexa-2,5-diene-1,4-dione]
EC50 [1]: < 0.2 µM | EC50 [2]: < 0.2 µM | EC50 [3]: < 0.2 µM | EC50 [4]: < 0.2 µM

COc1cccc(C2=C(CCC(C)(C)O)C(=O)C(C)=C(C)C2=O)c1 [2-(3-hydroxy-3-methylbutyl)-3-(3-methoxyphenyl)-5,6-dimethyl-cyclohexa-2,5-diene-1,4-dione]
EC50 [1]: < 0.2 µM

CC1=C(C)C(=O)C(c2ccccc2)=C(CCC(C)(C)O)C1=O [Example 10, 2-(3-Hydroxy-3-methylbutyl)-5,6-dimethyl-3-phenylcyclohexa-2,5-diene-1,4-dione]
EC50 [2]: < 0.2 µM

COc1ccc(C2=C(CCC(C)(C)O)C(=O)C(C)=C(C)C2=O)cc1 [Example 12, 2-(3-Hydroxy-3-methylbutyl)-3-(4-methoxyphenyl)-5,6-dimethylcyclohexa-2,5-diene-1,4-dione]
EC50 [1]: < 0.2 µM | EC50 [3]: < 0.2 µM

CC1=C(C)C(=O)C(c2cc3ccccc3o2)=C(CCC(C)(C)O)C1=O [Example 14, 2-(Benzofuran-2-yl)-3-(3-hydroxy-3-methylbutyl)-5,6-dimethylcyclohexa-2,5-diene-1,4-dione]
EC50 [2]: < 0.2 µM | EC50 [3]: < 0.2 µM

CC1=C(C)C(=O)C(c2ccc3c(c2)OCO3)=C(CCC(C)(C)O)C1=O [2-(benzo[d][1,3]dioxol-5-yl)-3-(3-hydroxy-3-methylbutyl)-5,6-dimethylcyclohexa-2,5-diene-1,4-dione]
EC50 [1]: < 0.2 µM

CC1=C(C)C(=O)C(c2ccc(F)c(F)c2)=C(CCC(C)(C)O)C1=O [Example 21, 2-(3,4-Difluorophenyl)-3-(3-hydroxy-3-methylbutyl)-5,6-dimethylcyclohexa-2,5-diene-1,4-dione]
EC50 [1]: < 0.2 µM | EC50 [3]: < 0.2 µM | EC50 [4]: < 0.2 µM

CC1=C(C)C(=O)C(C(O)Cc2ccccc2)=C(CCC(C)(C)O)C1=O (stereo not shown) [Example 26, 2-(1-Hydroxy-2-phenylethyl)-3-(3-hydroxy-3-methylbutyl)-5,6-dimethylcyclohexa-2,5-diene-1,4-dione]
EC50 [1]: < 0.2 µM | EC50 [2]: < 0.2 µM | EC50 [4]: < 0.2 µM

CC1=C(C)C(=O)C(Cc2ccccc2)=C(CCC(C)(C)O)C1=O [Example 23, 2-Benzyl-3-(3-hydroxy-3-methylbutyl)-5,6-dimethylcyclohexa-2,5-diene-1,4-dione]
EC50 [1]: < 0.2 µM | EC50 [3]: < 0.2 µM | EC50 [4]: < 0.2 µM

CC1=C(C)C(=O)C(CCC(C)(C)O)=C(CCc2ccccc2)C1=O [Example 25, 2-(3-Hydroxy-3-methylbutyl)-5,6-dimethyl-3-phenethylcyclohexa-2,5-diene-1,4-dione]
EC50 [1]: < 0.2 µM | EC50 [2]: < 0.2 µM | EC50 [3]: < 0.2 µM
